Results from patent publication US12570975B2, “Composition for diagnosis or treatment of a condition associated with increased activity of EIF4E comprising an EIF4E inhibitor” (SoVarGen Co., Ltd., priority 2019, dated 2026).

Columns and labels:
eIF4E mRNA = assay: Inhibitory concentration (IC50) against eIF4E mRNA, real-time PCR, HEK293T; format: cell-based, human
Method: In order to calculate IC50 values for ASO sequences, ASO candidates are transfected at different concentrations (20 nM, 80 nM, 320 nM) into the human cell line HEK293T (human) with the aid of iN-fect™ in vitro transfection reagent (15081, iNtRON, Republic of Korea). Twenty four hours after ASO transfection, the cells were harvested and analyzed for eIF4E mRNA expression reduction by real-time PCR. Relative eIF4E mRNA expression was normalized to the expression level using GAPDH as an internal control and was evaluated using the 2^−ΔΔCq method.
For comparison of inhibitory concentrations (IC50) among ASO candidates, a dose-response curve was derived by normalized nonlinear regression using Prism8 program (GraphPad Software, USA) (FIG. 16e).

eIF4E = eIF4E expression in cerebral cortex, cerebellum and spinal cord after ICV injection of ASO; settings: mouse, in vivo
Excerpt: Each of panels B to D of FIG. 17 and panels E and F of FIG. 18 represents “normal mice”, whereas panel A of FIG. 17 and panels G and H of FIG. 18 represents “FMCD animal models.”
For this experiment, animal models established using pCIG-mTOR p.C1483Y-IRES-EGFP and pCIG-mTOR p.L2427P-IRES-EGFP of Example 1 were used while animal models established with pCIG-mTOR (WT)-IRES-EGFP […] served as a control. The ASOs were each intracerebroventricularly injected (ICV injection) at a dose of 100-500 μg to the brains of the mice that had been identified to undergo epileptic seizure. From day 3 after ASO injection to up to day 70, 12-hour video were recorded for seizure monitoring 2-3 times a week per mouse.
After intraventricular injection of the ASO candidates to the animal models, eIF4E expression was reduced in the cerebral cortex, the cerebellum, and the spinal cord, with the consequent reduction in seizure frequency.

[1] = tested on: GFP-labeled mutant cells of FMCD animal models; assay: Neuronal (mutant) cell size after ICV injection of ASO; format: in vivo, mouse; settings: intractable epilepsy models, week 4-5 after ICV injection
Method: Week 4-5 after intracerebroventricular injection of ASO into the FMCD animal models established using pCIG-mTOR mutant-IRES-EGFP vector of Example 1, the brain was removed, fixed, sectioned, and immunostained. For neuronal cell size (FIG. 22), GFP (green)-labeled mutant cells (ASO control or ASO eIF4E) were measured for size in the obtained mouse brain tissues.

C57BL/6J mice [2] = settings: mouse, in vivo
Method: In this regard, ASO was administered by ICV injection. The ASO used in this experiment was ASO #77.
The 3-Chamber test measures social interaction and preference for social novelty. This apparatus consisted of three chambers with dimensions of 12×20×26 cm for the center chamber and dimensions of 14×20×26 cm for the opposite side chambers. Each of the opposite side chambers included a plastic cage (11 cm in diameter, 2.15 cm in height) for an object or stranger mouse in a corner. This experiment consisted of three sessions of habituation (10 min), exploring object/mouse (10 min), and exploring familiar/new mouse (10 min). In the second session, a WT stranger mouse was randomly placed in a plastic cage while the opposite plastic cage was empty. The mouse was allowed to freely explore the whole apparatus. The time spent in each chamber was measured and then used for the subsequent social interaction test. In the last session, a new WT stranger was placed in the empty plastic cage.

[3] = tested on: FMCD and epilepsy animal models (mTOR-p.C1483Y, mTOR-p.L2427P); assay: Social avoidance test, FMCD epilepsy models; format: in vivo, mouse; settings: ASO-eIF4E models compared to ASO-control models
Method: The arena was a black box (400×400 mm).
(§1) Experiments were performed on the FMCD and epilepsy animal models (mTOR-p.C1483Y, mTOR-p.L2427P) of Example 7-1 and the control normal animal models (mTOR-WT). The same sheIF4E as that described in Example 2 was used. Week 2 after sheIF4E injection, the handling was performed in the animals. Week 3 after sheIF4E injection, the animals were subjected to the behavioral tests.
(§2) The epilepsy animal models were subjected to the substantially same behavioral abnormality assay as in Example 6. The results are depicted in FIGS. 28 and 29.
(§3) Briefly, ASO #77 was administered by ICV injection to the FMCD and epilepsy animal models were generated with the pCIG-mTOR mutant-IRES-EGFP of Example 1. ASO #77 was evaluated for therapeutic potential for neuropsychiatric disorder accompanying the FMCD epilepsy animal models in the substantially same manner as in Example 6.

[4] = tested on: FMCD and epilepsy animal models (mTOR-p.C1483Y, mTOR-p.L2427P); assay: Marble burying test, FMCD epilepsy models; format: in vivo, mouse; settings: ASO-eIF4E models compared to ASO-control models
Method: A mouse was placed in the cage.
as §1, §2, §3

male mice = assay: Repeated dose toxicity assay by subcutaneous injection; format: in vivo, mouse; settings: subcutaneous 100 mg/kg, seven times within a month
Method: ASO #16, #21, #27, #35, #75, #77, and #89 selected in Example 4 were each assayed for repeated dose toxicity by subcutaneous injection.
Repeated dose toxicity assay of the […] was conducted by Biotoxtech Co., Ltd. In repeated dose toxicity assay, each ASO sequence was subcutaneously injected at a dose of 100 mg/kg to groups of four male mice seven times in total within a month (days 1, 3, 5, 7, 14, 21, and 28). Two days after the last injection, histopathologic observations were made.

[5] = tested on: mutant-expressing cells in the brain tissue; settings: mouse, in vivo
C57BL/6J mice [6] = settings: mouse, in vivo; remark: listed apart in the source

ASO #77: eIF4E-targeting antisense oligonucleotide of SEQ ID NO: 77, 2′-MOE gapmer, all phosphorothioate linkages (antisense GATCCTTCACCAATGTTACA; all phosphorothioate, sugars by position and methylation of C not given here; 2'-MOE gapmer)
IC50 (eIF4E mRNA; HEK293T, 20, 80, 320 nM, 24 h after transfection, read-out: IC50 against eIF4E mRNA expression): 53.8 nM | eIF4E mRNA expression compared to the mismatch ASO (eIF4E mRNA; HEK293T, at all of the doses (20 nM, 80 nM, 320 nM)): inhibited | eIF4E expression in animal models (eIF4E): reduce eIF4E expression | mutant cell size [1]: therapeutic effects | time spent in sniffing zone (index of sociality) (C57BL/6J mice [2]): not changed | time spent to interact with the stranger mouse (social ability and depression) [3]: increased | number of buried marbles (repetitive behavior) [4]: increased | dead or moribund animals (male mice): No dead or moribund animals | delivery into mutant-expressing cells in the brain tissue [5]: effectively delivered | dyskinesia (behavior test) (C57BL/6J mice [6]): no dyskinesia | time spent in center (index of anxiety) (C57BL/6J mice [6]): not changed
